# Assay results taken from US9795692B2, “Ocular detection of amyloid proteins” (SYSTEM OF SYSTEMS ANALYTICS, INC., priority 2011, dated 2017).
# Columns and labels:
# Assay type in all cases: binding
# [1] = molecular target: T1, non-Congophilic amyloid protein aggregates in human brain tissue (Homo sapiens, UniProt P05067); experiment: Staining of human hippocampal region and cerebral cortex compared with Congo Red
# T1 construct: from tissue; host or cells: human post-mortem brain tissue (neocortex, hippocampus, cerebral cortex)
# T1 sequence (P05067 672-713 limits assumed): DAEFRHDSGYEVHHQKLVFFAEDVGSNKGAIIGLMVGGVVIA
# [2] = test system: amyloid aggregates in human eyes (optic nerve, ciliary retina, retina, drusen); experiment: Staining of sectioned human donor eyes
# Description: Human eyes from donors with and without Alzheimer's Disease were obtained from the Georgia Eye Bank.
# [3] = test system: amyloid protein aggregates in brain tissue of transgenic mice with Alzheimer's Disease (Tg AD); experiment: Staining of murine brain tissue with FITC-labeled probe; settings: age-matched non-Tg murine brain; dentate gyrus or midbrain
# Experimental: Probes for detecting amyloid protein aggregates in brain tissue of transgenic mice with Alzheimer's Disease (Tg AD) were prepared in accordance with the methods described herein.
# [4] = patient (3), 11-1755/6, person, Alzheimer's Disease and dementia
# [5] = patient (4), 11-1767-8, person, Alzheimer's Disease
Compound,structures stained in the cerebral cortex ([1]; cerebral cortex of patients with Alzheimer's Disease),staining of morphological structures within the brain parenchyma ([1]; human brain parenchyma),"structures stained in the hippocampal region ([1]; human brain tissue, hippocampal region)","binding to amyloid aggregates in the optic nerve, intensity ([2]; human eye sections, optic nerve, PEP-11 compared with BC750)","staining of the retina, intensity and homogeneity ([2]; human eye sections, retina)","retinal staining: distinguishing Alzheimer's Disease from non-Alzheimer's Disease tissue ([2]; human eye sections, retina, AD vs non-AD eyes)","binding in optic nerve and ciliary retina ([2]; human eye sections, optic nerve immediately posterior to lamina cribrosa, ciliary retina)",manner of optic nerve staining ([2]; optic nerve of Alzheimer's Disease patients),"ciliary retina background staining [2, 4]","optic nerve staining [2, 4]","ciliary retina background staining [2, 5]","optic nerve staining [2, 5]","staining of drusen ([2]; patient eyes, generally)",staining of non-Tg control brain tissue [3]
Nc1c(/N=N/c2ccc(-c3ccc(/N=N/c4cc(S(=O)(=O)O)c5ccccc5c4N)cc3)cc2)cc(S(=O)(=O)O)c2ccccc12 [Congo Red],stained congophilic neuro-fibrillary tangles,Neither Congo Red nor PEP-11 stained any morphological structure,stained amyloid plaques at the center of the plaques,–,–,–,–,–,–,–,–,–,–,–
"PEP-11: WT17-35 with FITC and d-Arginine at C-Terminal (CLVFFAEDVGSNKGAIIGLMC; FITC label, C-terminal D-arginine; /note=“Description of Artificial Sequence Synthetic probe”)",–,–,–,significantly greater,ubiquitous background staining of retinal tissue,less intensely in non-Alzheimer's Disease eyes as compared to Alzheimer's Disease eyes,bound to amyloid aggregates,dose gradient manner,moderate and homogenous,moderate,moderate and homogenous,intense,appears to stain drusen,minimally stained
